Data as given in patent US11344510B2, “Arylcyclohexylamine derivatives and their use in the treatment of psychiatric disorders” (Gilgamesh Pharmaceuticals, Inc., priority 2019, dated 2022).
Entries after “also recorded” stand apart in the source; their conditions may differ. Structures can show the parent of a compound that is named as a salt.

Columns and labels:
[1] = HLM stability (Low Activity, Alternative Method); assay type: in vitro ADME; details: both sexes, human, liver microsomes, pH 7.4, Condition 1 column, values marked *: Low Activity, 0.50 mg protein/mL
How it was run: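 Pooled male and female human liver microsomes (0.50 mg/mL) in 100 mM PBS pH 7.4 with 1 mM MgCl2 and 1 mM NADPH, compound 1 μM (1.0% solvent), 37° C with shaking, six time points over 60 min. Parent remaining measured by LC-MS/MS; kel, t1/2 and Clint from linear regression of ln(AUC) versus time.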

[2] = system: mice (conditioned place preference model of abuse liability); experiment: Conditioned place preference in mice; assay type: in vivo, C57BL/6 mice; details: s.c., 3 drug conditioning trials, relative to saline vehicle
Procedure: Animals. Male C57BL/6 mice, 5-8 weeks of age, (body weight 25-30 g; Envigo, Indianapolis, Ind., USA) were housed 5 per polycarbonate tub with soft bedding in a temperature- and humidity-controlled vivarium. Mice were maintained under a 12-h light/dark cycle with lights on at 06:00. Food and water were available ad libitum Animals acclimated to the vivarium 1 week prior to experimental manipulations.
Drugs and Drug Administration. Test compounds and saline vehicle were administered subcutaneously (s.c.), with doses calculated based on the HCl salt, while the positive control oxycodone was administered intraperitoneally (i.p.), with the dose calculated based on the HCl salt. Normal saline was used as the vehicle. […]
Conditioned Place Preference. Reward and/or aversion was assessed in conditioned place preference chambers (Model MED-CPP-3013; Med Associates, St. Albans, Vt.). […]
Group size was n=10 per treatment. […] Final drug preference is assessed in a 15-minute post-conditioning trial and is calculated by subtracting the time in the drug-paired compartment at baseline from the time in the drug-paired compartment post-conditioning, with positive values reflecting reward and negative values reflecting aversion.
For all trials, time spent in chambers as well as movement was quantified by infrared photobeam detectors and calculated by Med-PC IV software. […]

[3] = HLM stability (Low Activity); assay type: in vitro ADME; details: both sexes, human, liver microsomes, pH 7.4, Condition 1 (Low Activity), 0.42 mg protein/mL
[4] = system: mice (forced swim test); experiment: Forced swim test in mice, 30-minute pre-treatment; assay type: in vivo, Swiss Webster mice; details: s.c., 30 minutes before test, relative to vehicle
Procedure: Animals. Male Swiss Webster mice, aged 4-5 weeks (body weight 25-30 g, Envigo) were used in the experiments Animals were housed in groups of 4-5 under controlled temperatures and 12-hour light/dark cycles, with ad libitum food (Teklad 7001 rodent diet) and water. These studies were carried out in strict accordance with the recommendations in the Guide for the Care and Use of Laboratory Animals of the National Institutes of Health. All efforts were made to minimize suffering.
Drugs and Drug Administration. Imipramine hydrochloride was administered intraperitoneally (i.p.) at a dose of 30 mg/kg. Other compounds were tested as the racemates (indicated by “rac” nomenclature) and were administered subcutaneously (s.c.) as the hydrochloride salts. Normal saline was used as the vehicle and all compounds were administered at a volume of 10 mL/kg, 30 minutes before behavioral testing.
Forced Swim Test (FST). Group size was n=10 per treatment Animals were acclimated to the testing room 30 minutes prior to behavioral testing. Mice were placed individually in a cylinder of water measuring 5 inches wide by 10 inches tall and maintained at 24-25° C. The activity of each mouse was recorded for 6 minutes using Noldus Ethovision tracking software, with periods of inactivity being automatically quantified.
Statistical Analysis. The data points shown are the mean±standard error of the mean (SEM). Analysis was performed using GraphPad Prism 6. Indicated statistical comparisons represent the results of unpaired, two-tailed t tests relative to vehicle (not corrected for multiple comparisons).

For Cc1ccccc1[C@]1(N)CCCCC1=O [Compound 114R, (R)-2-amino-2-(o-tolyl)cyclohexan-1-one], which half-life at 1 μM [1] is on record?
The half-life at 1 μM was > 2.42 h.

What about the microsomal CLint at 1 μM [1] of the same compound?
The microsomal CLint at 1 μM was < 9.6 µL/min/mg.

For Cc1ccccc1[C@@]1(N)CCCCC1=O [Compound 114S, (S)-2-amino-2-(o-tolyl)cyclohexan-1-one], which half-life at 1 μM [1] is on record?
The half-life at 1 μM was > 2.42 h.

And the microsomal CLint at 1 μM [1]?
Its microsomal CLint at 1 μM is < 9.6 µL/min/mg.

Which “conditioned place preference (abuse liability)” value [2] does the source give for CN[C@]1(c2ccccc2)CCCCC1=O [Compound 14S, (S)-2-(methylamino)-2-phenylcyclohexan-1-one] here?
Its value is “dose-dependent and significant preference”.

With CNC1(c2ccccc2Cl)CCCCC1=O (racemic) [rac-ketamine, racemic ketamine, reference compound] as the compound, how does the half-life at 2 μM [3] read?
The half-life at 2 μM was 1.31 h.

And the microsomal CLint at 2 μM [3]?
The microsomal CLint at 2 μM was 21 µL/min/mg.

And the “immobility time in FST” value [4]?
The value was “did not have effects”.

With CN[C@@]1(c2ccccc2)CCCCC1=O [Compound 14R, (R)-2-(methylamino)-2-phenylcyclohexan-1-one] as the compound, how does the “conditioned place preference (abuse liability)” value [2] read?
Its value is “neither preference nor aversion”.

What does the source list for CNC1(c2ccccc2)CCCCC1=O (racemic) [Compound 14rac, 2-(methylamino)-2-phenylcyclohexan-1-one hydrochloride]?
half-life at 2 μM [3]: 5.47 h; microsomal CLint at 2 μM [3]: 5 µL/min/mg; immobility time in FST ([4]; hydrochloride): reduced time immobile; also recorded: induced antidepressant-like effects
